Experimental data as given in patent US12139443B2, “Concentrated liquid compositions of urease inhibitors for nitrogen sources” (priority 2017, dated 2024).
“And” between values parts separate entries of the source, which are not always exact repeats. Equal values may be shown once. Read-outs that look alike come from different tables or passages of the source.

Tests used:
[1] = Thermal Stability of NBPT (oven exposure, weight loss and HPLC); assay type: physicochemical; conditions: for % NBPT present by LC/UV % w/w: single determination
Description: One of the advantages of this invention is the application, at moderate temperatures, of thermally sensitive urease inhibitor onto the surfaces of urea. Moderate temperatures are defined as a range of about 20-70° C. Testing procedures were established to exactly weigh samples of approximately 1 gram of NBPT in an aluminum pan and expose them to different temperatures in an oven over varying amounts of time. The initial weight of NBPT in the pan was compared to the final weight of sample in the pan. The % NBPT was then determined by HPLC of the residual from the final weight pan by the following procedure:
1. Crush a portion of sample (˜5 g) using mortar and pestle.
2. Weigh about a 100 mg sample, in duplicate, and add to separate 10 mL volumetric flasks.
3. Bring to volume of 10 ml volumetric flask with 50:50 ACN(Acetonitrile):H2O.
5. Transfer a portion through a Nylon 0.45 μm syringe filter into an HPLC vial.
6. Inject on LC/UV (15-μg/mL calibration standard).

[2] = Time to dissolution of nitrification inhibitor coated with urease formulation; assay type: physicochemical; conditions: UAN 30
From the text: • 1. In a 4 oz. glass jar add 97 grams of either Deionized (DI) Water or UAN 30. • 2. Add a ¾ inch magnetic stir bar and place on a Corning/Model PC-420 Heater/Stirrer and set stirring speed at #7. • 3. Charge 3 grams of a nitrification inhibitor coated or uncoated and start stop watch. • 4. Visually determine the point at which all particles of the nitrification inhibitor have dissolved and record this time as time to dissolution.

[3] = Crush strength of coated urea granules; assay type: physicochemical; conditions: New Leader tester scale 1-10 (1 very poor), average of 10 runs
From the text: Crush strength is the minimum pressure required to crush a granule of urea. Crush strength is of concern during the application of urea and is a measure of the urea's expected broadcast distance. Crush strength is related to the maximum rotations per minute (rpm) for the spinner portion of the urea spreader. The higher the rpms of the spinner, the more distance the urea can be broadcasted. High rpms require high crush strength urea granules in order for the granules not to be pulverized to dust by the broadcast process.
In order for the coated granules of urea to be tested, they were first sifted through a series of screens to ensure that the urea granules to be tested were of similar particle size as the urea particle size has an impact on crush resistance. A mesh size of 320-400 was chosen as the urea particle size. A New Leader crushing strength tester was used utilizing a scale from 1-10 wherein a reading of 1 is rated very poor crush strength. The results in Table 14 are for coated urea stored at 25° C. and at 50° C. Also included in Table 14 is the weight percentage of DMSO of the composition of the coated urea.
However, it should be understood that a different method of applying example 86 to the surfaces of the urea granules might result in better coverage (e.g., atomization onto the granules). […]

[4] = system: nitrification of urea fertilizer; test: University of Arkansas soil incubation trial, urea coated with N Bound; conditions: Urea without inhibitor
Description: To determine what minimum effective levels of DCD are required to meet acceptable levels of nitrification inhibition and to maximize performance versus inhibitor level, studies were performed at Auburn University, South Dakota State University and University of Arkansas. These studies were performed by coating urea with a liquid nitrification inhibitor product, trade name N Bound, which contained approximately 28% DCD. The application rates of N Bound on urea (Units are in quarts of N Bound/ton of urea) was varied to measure application level versus the conversion of urea to nitrate measured as mg NO3 extracted from the applied soil.
A trial conducted at University of Arkansas was designed to measure and compare the nitrate concentrations from the microbial activity on untreated urea and ureas coated with N Bound that had been applied to classified as a Calhoun silt loam (pH=7.4) at varying rates. The objective was to determine the minimum inhibitor application rate to achieve optimize nitrification inhibition.

Description for urease enzyme: The treated urea was prepared as follows:
• 1. Charging weight of urea as directed by Table 8 to a container. • 2. The urea was slowly agitated with overhead stirrer with U shaped agitator blade. • 3. The example was slowly dripped on the urea while mixing in the amount as directed by Table 8 (rate=3 quarts/ton of urea). • 4. […] The coated urea was placed in a jar and sealed.
• 1. In a 6″×9″ rectangular Tupperware sealable container with holes drilled on each end and sealed with tape charge 400 grams of West Texas Sandy Loam Soil and 100 grams of distilled water, mix thoroughly to a consistency of thick “mud” (% moisture should be between 30-40%). • 2. Calculate the surface area to be treated. • a. 6″×9.5″=sq in/1 44 sq in/sq ft=0.395 sq ft • b. 0.395 sq ft/43,560 sq ft/acre=0.0000091 acres • 3. Calculate amount of urea and treated urea to charge to the containers of soil • a. Application Rate: 400 pounds urea per acre • b. 400 lbs/acre/43560 sq ft/acre=0.009 lbs/sq ft×0.395 sq ft/container=0.0036 lbs/container×454 g/lb=1.65 grams urea per container. • c. Add 1.65 grams of urea and various treated ureas to each container • 4. Ammonia Volatilization Screening Test • a. Evenly distribute over the soil in each container 1.65 grams of example to be tested, • b. Seal container, • c. Take readings of ammonia volatilization of each container over a selected period of time as directed in Table 9, • i. Drager tube measurement • (1) Use Drager pump with 0-600 ppm (or range TBD) ammonia drager tube. • (2) At specified times, quickly remove the tape on one end of container and insert the drager tube/pump. • (3) Fully squeeze pump 20 times allowing enough time for pump to fully inflate between each squeeze and then remove the tube from the container and read. • (4) Open container lid and vent the remaining ammonia gas out of the container and reseal. • (5) Repeat procedure at next designated time.

CCCCNP(N)(N)=S [NBPT, N-(n-butyl)thiophosphoric triamide]
% NBPT present by LC/UV Average ([1]; 50° C./3600 sec): 99.38% | % Weight Loss Average ([1]; 50° C./3600 sec): 0.0% | % NBPT present by LC/UV % w/w ([1]; 50° C./3600 sec): 99.17% and 99.58% | % NBPT present by LC/UV Average ([1]; 70° C./900 sec): 99.38% | % Weight Loss Average ([1]; 70° C./900 sec): 0.26% | % NBPT present by LC/UV % w/w ([1]; 70° C./900 sec): 99.53% and 99.23% | % NBPT present by LC/UV Average ([1]; 100° C./300 sec): 22.92% | % Weight Loss Average ([1]; 100° C./300 sec): 10.36% | % NBPT present by LC/UV % w/w ([1]; 100° C./300 sec): 23.59% and 22.25% | % NBPT present by LC/UV Average ([1]; 120° C./180 sec): 4.67% | % Weight Loss Average ([1]; 120° C./180 sec): 13.55% | % NBPT present by LC/UV % w/w ([1]; 120° C./180 sec): 4.79% and 4.54% | % NBPT present by LC/UV Average ([1]; 140° C./90 sec): 3.84% | % Weight Loss Average ([1]; 140° C./90 sec): 13.42% | % NBPT present by LC/UV % w/w ([1]; 140° C./90 sec): 3.68% and 3.99% | degradation (HPLC) ([1]; 15 minutes at 70° C.): no degradation | % NBPT present by LC/UV Average ([1]; NBPT std, not heated): 99.25% | % NBPT present by LC/UV % w/w ([1]; NBPT std, not heated): 99.35% and 99.16% | thermal stability (HPLC) ([1]; temperatures >100° C.): poor thermal stability

N#CN=C(N)N [DCD untreated, Dicyandiamide]
Initial Appearance ([2]; 3%): clear | Time to Dissolution ([2]; 3 grams in 97 grams (3%)): 1740 s

NC(N)=O [Urea]
Crush Strength stored 24 hrs. @ 25 C. [3]: 5.4 | Crush Strength stored 24 hrs. @ 50 C. [3]: 6.75 | Ammonia Reading (urease enzyme; 72 hours, 1.65 grams treated urea (3 quarts/ton) on West Texas Sandy Loam Soil): 220 ppm | Ammonia Reading (urease enzyme; 144 hours): 475 ppm | Ammonia Reading (urease enzyme; 264 hours): 460 ppm | Nitrate-N Concentration ([4]; Day 1, Calhoun silt loam): 113.4 mg NO3—N/kg soil | Nitrate-N Concentration ([4]; Day 3): 98.6 mg NO3—N/kg soil | Nitrate-N Concentration ([4]; Day 7): 151.6 mg NO3—N/kg soil | Nitrate-N Concentration ([4]; Day 14): 202.8 mg NO3—N/kg soil | Nitrate-N Concentration ([4]; Day 21): 221.2 mg NO3—N/kg soil | Nitrate-N Concentration ([4]; Day 28): 262.3 mg NO3—N/kg soil | Nitrate-N Concentration ([4]; Day 35): 255.3 mg NO3—N/kg soil
